Data from patent US20210238170A1, “5,5-Difluoro- and 5-Fluoro-5-Methyl-C-Glycoside Derivatives Useful As Dual SGLT1 / SGLT2 Modulators” (Janssen Pharmaceutica NV, priority 2018, published 2021).

Tests used:
[1] = target: T1, human SGLT2 (Homo sapiens, UniProt P31639); assay: SGLT2 in vitro assay: Na-dependent 14C-AMG uptake in CHO-K1 cells stably expressing human SGLT2; type: cell-based; conditions: CHO-K1 cells stably expressing human SGLT2, 14C-AMG uptake; for inhibition at 0.3 µM: read-out: SGLT2 % Inh @ 0.3 μM; for IC50: compounds of formula (I) where R0 is fluoro
T1 construct: expressed in transfected cells
T1 sequence (P31639 1-672): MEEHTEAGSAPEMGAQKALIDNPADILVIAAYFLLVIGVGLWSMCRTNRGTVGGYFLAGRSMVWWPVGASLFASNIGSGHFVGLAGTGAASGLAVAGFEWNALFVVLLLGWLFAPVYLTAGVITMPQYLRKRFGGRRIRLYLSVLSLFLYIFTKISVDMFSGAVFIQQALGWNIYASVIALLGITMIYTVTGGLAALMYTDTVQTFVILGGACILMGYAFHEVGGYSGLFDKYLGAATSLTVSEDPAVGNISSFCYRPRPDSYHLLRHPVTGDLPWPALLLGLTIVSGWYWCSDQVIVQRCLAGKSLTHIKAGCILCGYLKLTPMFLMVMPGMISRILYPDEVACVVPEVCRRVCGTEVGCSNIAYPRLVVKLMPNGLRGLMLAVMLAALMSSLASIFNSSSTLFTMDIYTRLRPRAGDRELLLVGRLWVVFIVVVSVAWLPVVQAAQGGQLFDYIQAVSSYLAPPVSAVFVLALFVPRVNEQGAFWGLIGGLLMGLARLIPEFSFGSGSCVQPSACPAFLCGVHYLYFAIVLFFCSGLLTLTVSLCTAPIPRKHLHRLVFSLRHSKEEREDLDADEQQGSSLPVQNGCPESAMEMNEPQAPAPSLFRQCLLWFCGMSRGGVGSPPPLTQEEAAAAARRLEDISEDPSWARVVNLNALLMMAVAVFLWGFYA
In short: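 CHO-K1 cells stably expressing human SGLT1 or SGLT2, induced with 10 mM Na-butyrate for 24 h. Compounds (0.001–10 μM) in Na+-containing HEPES/Tris buffer pH 7.4 were applied for 10 min, then 14C-AMG ([…]) for 2 h at 37°C; Na-dependent uptake read by scintillation; %-inhibition or IC50.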

[2] = tested on: SD rats; assay: Oral Glucose Tolerance Test (OGTT) in SD rats: blood glucose excursion AUC and urine glucose excretion; type: in vivo, rat; conditions: mean ± SE; for response vs control in vivo at 1 mg/kg / response vs control in vivo at 10 mg/kg: Rattus norvegicus, 2 h, n = 8, read-out: 120-min Blood Glucose AUC vs Vehicle (%); for Urine Glucose Excretion (g/0-4 hr): n = 8
Procedure: Biological Example 2: In Vivo Assay
Oral Glucose Tolerance Test (OGTT) in SD Rats
Overnight fasted SD rats were allocated into vehicle or test compound treatment groups based on their body weights (n=8 in each group). The animals were orally dosed with vehicle or test compound at a volume of 10 ml/kg at 30-minute prior to OGTT. The animals then received an OGTT challenge with 2 g/kg (50% glucose solution at the volume of 4 ml/kg, orally). The animals were immediately transferred into metabolic cages after they were dosed with the glucose. Blood glucose levels were measured at 0 (pre-OGTT), 30, 60, and 120 minutes after OGTT using one-touch Glucometer. Blood glucose excursion AUC (area under the curve of blood glucose) was determined from the blood glucose levels measured at the timepoints.
Table 9 below, presents the measured efficacy of the test compound(s), expressed as the percentage (%) of blood glucose AUC vs that in vehicle group. The data is interpreted such that, the smaller the percentage of blood glucose AUC of compound vs vehicle, the greater the efficacy of the test compound. Urine volume and urine glucose concentrations (tested by using Olympus system with Genzyme diagnostics assay reagent) were measured to determine the urine glucose excretion (UGE) in 4-hr period after OGTT (0-4 hours).

inhibition at 0.3 µM [1] [%]	IC50 [1] [nM]	Compound	response vs control in vivo at 1 mg/kg ([2]; oral dose 1 mg/kg) [%]	response vs control in vivo at 10 mg/kg ([2]; oral dose 10 mg/kg) [%]	Urine Glucose Excretion (g/0-4 hr) ([2]; oral dose 1 mg/kg)	Urine Glucose Excretion (g/0-4 hr) ([2]; oral dose 10 mg/kg)
87.4	1.1	COc1ccc(Cc2cc([C@@H]3O[C@H](CO)C(F)(F)[C@H](O)[C@H]3O)c(O)cc2Cl)cc1 [Compound 81, (2S,3R,4R,6R)-2-(4-chloro-2-hydroxy-5-(4-methoxybenzyl)phenyl)-5,5-difluoro-6-(hydroxymethyl)-tetrahydro-2H-pyran-3,4-diol]	77.5 ± 2.4	41 ± 2.7	0.099 ± 0.037	0.276 ± 0.032
90.1	1.3	COc1cc(O)c([C@@H]2O[C@H](CO)C(F)(F)[C@H](O)[C@H]2O)cc1Cc1ccc2c(c1)CCCO2 [Compound 44, (2S,3R,4R,6R)-2-(5-(chroman-6-ylmethyl)-2-hydroxy-4-methoxyphenyl)-5,5-difluoro-6-(hydroxymethyl)tetrahydro-2H-pyran-3,4-diol]	61.7 ± 2.1	39.3 ± 1.7	0.002 ± 0.001	0.2 ± 0.02
